{
  "source": "patent US20020192314A1",
  "about": "“Dietary supplement compositions” (priority 2001, published 2002)",
  "tested_on": "LDL cholesterol",
  "assay": "LDL cholesterol oxidation lag time, copper ions, absorbance at 234 nm",
  "type": "biochemical, human",
  "conditions": "copper ions 5 μmole/L",
  "description": "The antioxidant properties of a dietary supplement can be measured using an assay for LDL cholesterol oxidation. Briefly, blood samples are drawn and LDL cholesterol is isolated. The isolated LDL cholesterol is combined with a dietary supplement to be evaluated, and the time (i.e., lag time) before cholesterol oxidation is observed is measured. Copper ions accelerate the production of conjugated dienes due to oxidation, while antioxidants prolong the onset of diene production. Since dienes absorb light at 234 nm, LDL cholesterol oxidation can be monitored by examining the absorbance at 234 nm as a function of time. Thus, the antioxidant properties of, for example, a dietary supplement or other compound can be evaluated by determining the time elapsed before LDL cholesterol oxidation is observed.\nLDL cholesterol oxidation is usually determined by measuring absorbance at 234 nm (AbS234 nm) as a function of time under oxidative conditions. The antioxidant effectiveness of various grape seed extracts was determined. LDL cholesterol was prepared from human volunteer blood samples as described above. Isolated LDL cholesterol was then mixed with a buffer, vitamin E, or grape seed extract. Copper ions (5 μmole/L final concentration) were added to each sample. Grape seed extracts were prepared at 0.5 or 1.0 mg/L final concentration. […]",
  "data": [
    {"substance": "Vitamin E", "values": [
      {"measurement": "time LDL cholesterol protected from oxidation", "result": "about 125 min"},
      {"measurement": "LDL oxidation lag time", "setting": "grape seed extract 0.5 mg/L, vitamin E amount comparable to blood level after 400 IU", "result": 125, "unit": "min"}
    ]}
  ]
}
